Test results from ChEMBL document CHEMBL2146469, “Mechanisms involved in the antinociceptive effects of 7-hydroxycoumarin” (J Nat Prod, 2011).
The source made the active and inactive calls.

Experiments:
[1] = species: Mus musculus; settings: Swiss, 5 mg/kg
Description: Inhibition of carrageenan-induced PGE2 production in Swiss mouse at 5 mg/kg, po dosed 45 mins before carrageenan dosing measured 3 hrs post carrageenan challenge by ELISA

[2] = tested on: Mus musculus; assay: Antinociceptive activity in Swiss mouse inflammatory pain model assessed as reduction in paw edema at 2 mg/kg, sc dosed once daily for 7 days dosed 45 mins before complete Freund's adjuvant dosing measured post complete Freund's adjuvant challenge; type: functional, organism-based; set-up: dose 2 mg/kg
[3] = tested on: Mus musculus; assay: Inhibition of complete Freund's adjuvant-induced IL-1beta production in Swiss mouse at 2 mg/kg, sc dosed 45 mins before complete Freund's adjuvant dosing measured up to 24 hrs post complete Freund's adjuvant challenge by ELISA; type: functional, organism-based; set-up: dose 2 mg/kg
[4] = tested on: Mus musculus; assay: Antinociceptive activity in Swiss mouse inflammatory pain model assessed as reduction in mechanical hyperalgesia at 2 mg/kg, sc dosed 45 mins before complete Freund's adjuvant dosing measured 4 to 24 hrs post complete Freund's adjuvant challenge by electronic pressure-meter test; type: functional, organism-based; set-up: dose 2 mg/kg
[5] = tested on: Mus musculus; assay: Inhibition of carrageenan-induced neutrophil migration to paw tissue in Swiss mouse at 2 mg/kg, sc dosed 45 mins before carrageenan dosing measured 3 to 4 hrs post […] challenge by myeloperoxidase kinetic colorimetric assay; type: functional, organism-based; set-up: dose 2 mg/kg
[6] = tested on: Mus musculus; assay: Inhibition of complete Freund's adjuvant-induced TNFalpha production in Swiss mouse at 2 mg/kg, sc dosed 45 mins before complete Freund's adjuvant dosing measured up to 2 hrs post complete Freund's adjuvant challenge by ELISA; type: functional, organism-based; set-up: dose 2 mg/kg
[7] = tested on: Mus musculus; assay: Antinociceptive activity in Swiss mouse inflammatory pain model assessed as reduction in paw withdrawal response at 2 mg/kg, sc dosed once daily for 7 days dosed 45 mins before complete Freund's adjuvant dosing measured post complete Freund's adjuvant challenge; type: functional, organism-based; set-up: dose 2 mg/kg
[8] = tested on: Mus musculus; assay: Inhibition of complete Freund's adjuvant-induced neutrophil migration to paw tissue in Swiss mouse at 2 mg/kg, sc dosed 45 mins before complete Freund's adjuvant dosing measured 3 to 4 hrs post complete Freund's adjuvant challenge by myeloperoxidase kinetic colorimetric assay; type: functional, organism-based; set-up: dose 2 mg/kg
[9] = tested on: Mus musculus; assay: Antinociceptive activity in Swiss mouse inflammatory pain model assessed as reduction in hyperalgesia at 0.5 mg/kg, sc dosed once daily for 7 days dosed 45 mins before carrageenan dosing measured 3 hrs post carrageenan challenge; type: functional, organism-based; set-up: dose 0.5 mg/kg
[10] = tested on: Mus musculus; assay: Antinociceptive activity in Swiss mouse inflammatory pain model assessed as reduction in hyperalgesia at 160 ug/paw dosed 45 mins before PGE2 dosing measured 3 hrs post PGE2 challenge; type: functional, organism-based
[11] = tested on: Mus musculus; assay: Gastric toxicity in Swiss mouse assessed as necrosis index at 10 mg/kg administered as single dose (reference value: 0 +/- 0 necrosis index); type: organism-based; set-up: dose 10 mg/kg; settings: in vivo
[12] = tested on: Mus musculus; assay: Gastric toxicity in Swiss mouse assessed as edema index at 10 mg/kg administered as single dose (reference value: 0.6 +/- 0.2 edema index); type: organism-based; set-up: dose 10 mg/kg; settings: in vivo
[13] = tested on: Mus musculus; assay: Gastric toxicity in Swiss mouse assessed as erosion index at 10 mg/kg administered as single dose (reference value: 0 +/- 0 erosion index); type: organism-based; set-up: dose 10 mg/kg; settings: in vivo
[14] = tested on: Mus musculus; assay: Gastric toxicity in Swiss mouse assessed as inflammatory cell index at 10 mg/kg administered as single dose (reference value: 0.2 +/- 0.2 inflammatory cell index); type: organism-based; set-up: dose 10 mg/kg; settings: in vivo
[15] = tested on: Mus musculus; assay: Toxicity in Swiss mouse assessed as corporal mass changes at 60 mg/kg, po dosed once daily for 7 days (reference value: 0.58 +/- 0.03 g); type: organism-based; set-up: dose 60 mg/kg, route oral; settings: in vivo, 168 h
[16] = tested on: Mus musculus; assay: Antinociceptive activity in Swiss mouse inflammatory pain model assessed as reduction in hyperalgesia at 120 mg/kg, po dosed once daily for 7 days dosed 45 mins before PGE2 dosing measured 3 hrs post PGE2 challenge; type: functional, organism-based; set-up: dose 120 mg/kg
[17] = tested on: Mus musculus; assay: Toxicity in Swiss mouse assessed as heart weight changes per 10 gram of body weight at 60 mg/kg, po dosed once daily for 7 days (reference value: 0.05 +/- 0.00 g/10 g body weight); type: organism-based; set-up: dose 60 mg/kg, route oral; settings: in vivo, 168 h
[18] = tested on: Mus musculus; assay: Gastric toxicity in Swiss mouse assessed as erosion index at 60 mg/kg administered daily with single dose (reference value: 0 +/- 0 erosion index); type: organism-based; set-up: dose 60 mg/kg; settings: in vivo
[19] = tested on: Mus musculus; assay: Antinociceptive activity in Swiss mouse inflammatory pain model assessed as reduction in hyperalgesia at 60 mg/kg, po dosed once daily for 7 days dosed 45 mins before PGE2 dosing measured 3 hrs post PGE2 challenge; type: functional, organism-based; set-up: dose 60 mg/kg
[20] = tested on: Mus musculus; assay: Toxicity in Swiss mouse assessed as total leukocytes level at 60 mg/kg, po dosed once daily for 7 days (reference value: 5.9 +/- 0.8 10^3/mL); type: organism-based; set-up: dose 60 mg/kg, route oral; settings: in vivo, 168 h
[21] = tested on: Mus musculus; assay: Gastric toxicity in Swiss mouse assessed as edema index at 60 mg/kg administered daily with single dose (reference value: 0.6 +/- 0.2 edema index); type: organism-based; set-up: dose 60 mg/kg; settings: in vivo
[22] = tested on: Mus musculus; assay: Inhibition of complete Freund's adjuvant-induced IL-1beta production in Swiss mouse at 60 mg/kg, po dosed 45 mins before complete Freund's adjuvant dosing measured up to 24 hrs post complete Freund's adjuvant challenge by ELISA; type: functional, organism-based; set-up: dose 60 mg/kg
[23] = tested on: Mus musculus; assay: Inhibition of complete Freund's adjuvant-induced neutrophil migration to paw tissue in Swiss mouse at 60 mg/kg, po dosed 45 mins before complete Freund's adjuvant dosing measured 3 to 4 hrs post complete Freund's adjuvant challenge by myeloperoxidase kinetic colorimetric assay; type: functional, organism-based; set-up: dose 60 mg/kg
[24] = tested on: Mus musculus; assay: Toxicity in Swiss mouse assessed as liver weight changes per 10 gram of body weight at 60 mg/kg, po dosed once daily for 7 days (reference value: 0.73 +/- 0.07 g/10 g body weight); type: organism-based; set-up: dose 60 mg/kg, route oral; settings: in vivo, 168 h
[25] = tested on: Mus musculus; assay: Inhibition of carrageenan-induced PGE2 production in Swiss mouse at 60 mg/kg, po dosed 45 mins before carrageenan dosing measured 3 hrs post carrageenan challenge by ELISA; type: functional, organism-based; set-up: dose 60 mg/kg
[26] = tested on: Mus musculus; assay: Toxicity in Swiss mouse assessed as kidney weight changes per 10 gram of body weight at 60 mg/kg, po dosed once daily for 7 days (reference value: 0.06 +/- 0.00 g/10 g body weight); type: organism-based; set-up: dose 60 mg/kg, route oral; settings: in vivo, 168 h
[27] = tested on: Mus musculus; assay: Antinociceptive activity in Swiss mouse inflammatory pain model assessed as reduction in mechanical hyperalgesia at 30 to 120 mg/kg, po dosed 45 mins before complete Freund's adjuvant dosing measured 24 hrs post complete Freund's adjuvant challenge by electronic pressure-meter test; type: functional, organism-based
[28] = tested on: Mus musculus; assay: Antinociceptive activity in Swiss mouse inflammatory pain model assessed as reduction in hyperalgesia at 60 mg/kg, po dosed once daily for 7 days dosed 45 mins before carrageenan dosing measured 3 hrs post carrageenan challenge; type: functional, organism-based; set-up: dose 60 mg/kg
[29] = tested on: Mus musculus; assay: Antinociceptive activity in Swiss mouse inflammatory pain model assessed as reduction in paw withdrawal response at 60 mg/kg, po dosed once daily for 7 days dosed 45 mins before complete Freund's adjuvant dosing measured 2 days post compound withdrawal; type: functional, organism-based; set-up: dose 60 mg/kg
[30] = tested on: Mus musculus; assay: Gastric toxicity in Swiss mouse assessed as necrosis index at 60 mg/kg administered daily with single dose (reference value: 0 +/- 0 necrosis index); type: organism-based; set-up: dose 60 mg/kg; settings: in vivo
[31] = tested on: Mus musculus; assay: Effect on baseline nociceptive threshold in Swiss mouse inflammatory pain model at 30 to 120 mg/kg, po dosed 45 mins before complete Freund's adjuvant dosing measured 4 to 24 hrs post complete Freund's adjuvant challenge by electronic pressure-meter test; type: functional, organism-based
[32] = tested on: Mus musculus; assay: Antinociceptive activity in Swiss mouse inflammatory pain model assessed as reduction in paw withdrawal response at 60 mg/kg, po dosed once daily for 7 days dosed 45 mins before complete Freund's adjuvant dosing measured post complete Freund's adjuvant challenge; type: functional, organism-based; set-up: dose 60 mg/kg
[33] = tested on: Mus musculus; assay: Gastric toxicity in Swiss mouse assessed as inflammatory cell index at 60 mg/kg administered daily with single dose (reference value: 0.2 +/- 0.2 inflammatory cell index); type: organism-based; set-up: dose 60 mg/kg; settings: in vivo
[34] = tested on: Mus musculus; assay: Toxicity in Swiss mouse assessed as creatinine level at 60 mg/kg, po dosed once daily for 7 days (reference value: 0.26 +/- 0.05 mg/dL); type: organism-based; set-up: dose 60 mg/kg, route oral; settings: in vivo, 168 h
[35] = tested on: Mus musculus; assay: Antinociceptive activity in Swiss mouse inflammatory pain model assessed as reduction in paw edema at 60 mg/kg, po dosed once daily for 7 days dosed 45 mins before complete Freund's adjuvant dosing measured post complete Freund's adjuvant challenge; type: functional, organism-based; set-up: dose 60 mg/kg
[36] = tested on: Mus musculus; assay: Toxicity in Swiss mouse assessed as ALT level at 60 mg/kg, po dosed once daily for 7 days (reference value: 68.0 +/- 12.8 UI/L); type: organism-based; set-up: dose 60 mg/kg, route oral; settings: in vivo, 168 h
[37] = tested on: Mus musculus; assay: Antinociceptive activity in Swiss mouse inflammatory pain model assessed as reduction in mechanical hyperalgesia at 30 to 120 mg/kg, po dosed 45 mins before complete Freund's adjuvant dosing measured 6 hrs post complete Freund's adjuvant challenge by electronic pressure-meter test; type: functional, organism-based
[38] = tested on: Mus musculus; assay: Inhibition of carrageenan-induced neutrophil migration to paw tissue in Swiss mouse at 60 mg/kg, po dosed 45 mins before carrageenan dosing measured 3 to 4 hrs post […] challenge by myeloperoxidase kinetic colorimetric assay; type: functional, organism-based; set-up: dose 60 mg/kg
[39] = tested on: Mus musculus; assay: Toxicity in Swiss mouse assessed as AST level at 60 mg/kg, po dosed once daily for 7 days (reference value: 145.7 +/- 23.4 UI/L); type: organism-based; set-up: dose 60 mg/kg, route oral; settings: in vivo, 168 h
[40] = tested on: Mus musculus; assay: Antinociceptive activity in Swiss mouse inflammatory pain model assessed as reduction in mechanical hyperalgesia at 30 to 120 mg/kg, po dosed 45 mins before complete Freund's adjuvant dosing measured 2 hrs post complete Freund's adjuvant challenge by electronic pressure-meter test; type: functional, organism-based
[41] = tested on: Mus musculus; assay: Inhibition of complete Freund's adjuvant-induced TNFalpha production in Swiss mouse at 60 mg/kg, po dosed 45 mins before complete Freund's adjuvant dosing measured up to 2 hrs post complete Freund's adjuvant challenge by ELISA; type: functional, organism-based; set-up: dose 60 mg/kg

SMILES: CS(=O)(=O)Nc1ccc([N+](=O)[O-])cc1Oc1ccccc1
- inhibition [1]: Active

SMILES: C[C@@H]1C[C@H]2[C@@H]3CCC4=CC(=O)C=C[C@]4(C)[C@@]3(F)[C@@H](O)C[C@]2(C)[C@@]1(O)C(=O)CO
- Activity [2]: Active
- inhibition [3]: Active
- Activity [4]: Active
- inhibition [5]: Active
- inhibition [6]: Active
- Activity [7]: Active
- inhibition [8]: Active
- Activity [9]: Active

SMILES: Cc1c(N(C)CS(=O)(=O)O)c(=O)n(-c2ccccc2)n1C
- Activity [10]: Active

SMILES: COc1ccc2c(c1)c(CC(=O)O)c(C)n2C(=O)c1ccc(Cl)cc1 [INDOMETHACIN]
- Activity [11]: 0
- Activity [12]: 2.6
- Activity [13]: 3
- Activity [14]: 4

SMILES: O=c1ccc2ccc(O)cc2o1 [UMBELLIFERONE]
- Activity [15]: 0.6 g
- Activity [16]: inactive
- Activity [17]: 0.05 g
- Activity [18]: 0
- Activity [19]: inactive
- Activity [20]: 6.725 ×10³ /ml
- Activity [21]: 0.7
- inhibition [22]: Active
- inhibition [23]: Active
- Activity [24]: 0.72 g
- inhibition [25]: Active
- Activity [26]: 0.07 g
- Activity [27]: Dose-dependent effect
- Activity [28]: Active
- Activity [29]: inactive
- Activity [30]: 0
- Activity [31]: inactive
- Activity [32]: Active
- Activity [33]: 0.4
- Activity [34]: 0.27 mg/dL
- Activity [35]: Active
- Activity [36]: 51 IU/L
- Activity [37]: Dose-dependent effect
- inhibition [38]: Active
- Activity [39]: 115 IU/L
- Activity [40]: Dose-dependent effect
- inhibition [41]: Active
